{"source": "patent US20150079169A1", "about": "(POZEN INC., priority 2011, published 2015)", "origin": "cited, not measured here", "key": {"[1]": {"details": "for major cardiovascular events (ischaemic stroke, MI, or vascular death), average rate per year: 19,185 people with history of MI, stroke, or peripheral arterial disease, clopidogrel 75 mg daily versus aspirin 325 mg daily"}, "[2]": {"details": "clopidogrel therapy"}, "[3]": {"system": "human plasma proteins"}, "[4]": {"details": "oral dose of 14C-labeled clopidogrel in humans, five days after dosing"}, "[5]": {"details": "repeated oral doses of 75 mg clopidogrel (base)"}}, "data": [{"smiles": "CC(=O)Oc1ccccc1C(=O)O", "note": "[aspirin]", "values": [{"measurement": "major cardiovascular events (ischaemic stroke, MI, or vascular death), average rate per year", "setting": "[1]", "value": 6, "unit": "%"}, {"measurement": "reduction of incidence of non-fatal myocardial infarction, non-fatal stroke and vascular death", "setting": "[1]; people with known vascular disease", "value": "about a quarter"}]}, {"smiles": "COC(=O)[C@H](c1ccccc1Cl)N1CCc2sccc2C1", "note": "[clopidogrel bisulfate]", "values": [{"measurement": "effect of administration with meals on bioavailability of clopidogrel", "setting": "assessed by pharmacokinetics of the main circulating metabolite", "value": "did not significantly modify"}]}, {"smiles": "COC(=O)[C@H](c1ccccc1Cl)N1CCc2sccc2C1", "note": "[clopidogrel]", "values": [{"measurement": "Absorption", "setting": "based on urinary excretion of clopidogrel-related metabolites", "value": "at least 50%"}, {"measurement": "elimination half-life of the active metabolite", "setting": "in vivo", "value": "about eight hours"}, {"measurement": "time of peak plasma levels", "setting": "in vivo", "value": "30 to 60", "unit": "min"}, {"measurement": "excreted in the feces", "setting": "[4]", "value": "approximately 46%"}, {"measurement": "excreted in the urine", "setting": "[4]", "value": "approximately 50%"}, {"measurement": "plasma concentrations of the parent compound (below the quantification limit)", "setting": "repeated 75 mg oral doses, beyond two hours after dosing", "value": "< 0.258", "unit": "ng/mL"}, {"measurement": "peak plasma levels of the main circulating metabolite", "setting": "[5]", "value": "approx. 3 mg/L"}, {"measurement": "time of peak plasma levels of the main circulating metabolite", "setting": "[5]", "value": "approximately one hour after dosing"}, {"measurement": "RRR of major cardiovascular events versus aspirin", "setting": "[1]; 95% CI 0.30% to 16.5%, P=0.04", "value": 8.7, "unit": "%"}, {"measurement": "OR for cardiovascular events compared with aspirin", "setting": "[1]; 95% CI 0.84 to 0.98", "value": 0.91}, {"measurement": "major cardiovascular events (ischaemic stroke, MI, or vascular death), average rate per year", "setting": "[1]", "value": 5, "unit": "%"}, {"measurement": "greater risk for major adverse cardiovascular events in patients with CYP2C19 variants", "setting": "[1]; patients with variants in cytochrome P-450 2C19", "value": 3.58, "unit": "fold"}, {"measurement": "incidence of gastrointestinal hemorrhage", "setting": "[2]", "value": 2.0, "unit": "% annually"}, {"measurement": "reversible binding in vitro to human plasma proteins", "setting": "[3]", "value": 98, "unit": "%"}]}, {"smiles": "O=C(O)[C@H](c1ccccc1Cl)N1CCc2sccc2C1", "note": "[main circulating metabolite]", "values": [{"measurement": "reversible binding in vitro to human plasma proteins", "setting": "[3]", "value": 94, "unit": "%"}]}]}
